Earlier results in the PKSmart pharmacokinetics tables (Seal et al. 2025).

Test: Lombardo, Berellini, Obach 2018, Drug Metab Dispos 46:1466, doi 10.1124/dmd.118.082966
Details: human; for MRT / Vd / clearance / half-life: in vivo, iv; for fraction unbound: plasma

Compound	MRT	Vd	fraction unbound	clearance	half-life
CCNC(=O)OC1CCN(c2nncc3cc(OC)c(OC)cc23)CC1	0.25 h	0.67 L/kg	0.08	–	–
CCN(CC)CC(=O)Nc1c(C)cccc1C	1.9 h	–	–	–	–
C[C@@]1(Cn2ccnn2)C(C(=O)O)N2C(=O)C[C@H]2S1(=O)=O (some centres undefined)	0.89 h	0.26 L/kg	0.7	4.81 mL/min/kg	0.97 h
CC(=O)N(O)CCCCCNC(=O)CCC(=O)N(O)CCCCCNC(=O)CCC(=O)N(O)CCCCCN	2.7 h	1.35 L/kg	–	8.33 mL/min/kg	3.05 h
CN1CCN(CCCN2c3ccccc3Sc3ccc(Cl)cc32)CC1	23 h	22 L/kg	–	16 mL/min/kg	9 h
Clc1ccc2nsnc2c1NC1=NCCN1	3.6 h	2.4 L/kg	–	11 mL/min/kg	2.4 h
CC(CN(C)C)CN1c2ccccc2CCc2ccccc21 (centres undefined)	17 h	16 L/kg	0.051	16 mL/min/kg	23 h
CC(C)(C)OC(=O)NC1CCCCC/C=C\[C@@H]2C[C@@]2(C(=O)NS(=O)(=O)C2CC2)NC(=O)C2C[C@@H](OC(=O)N3Cc4cccc(F)c4C3)CN2C1=O (some centres undefined)	0.32 h	0.22 L/kg	0.02	11.5 mL/min/kg	1.81 h
COc1ccc2[n-]c([S@+](O)Cc3ncc(C)c(OC)c3C)nc2c1	0.9 h	0.2 L/kg	0.03	3.85 mL/min/kg	0.83 h
COc1ccc2cc1Oc1ccc(cc1)C[C@H]1c3cc(c(OC)cc3CCN1C)Oc1c(OC)c(OC)c(Br)c3c1[C@H](C2)N(C)CC3	88.2 h	51 L/kg	0.22	9.6 mL/min/kg	59.4 h
N#C[C@@H](O[C@@H]1O[C@H](CO[C@@H]2O[C@H](CO)[C@@H](O)[C@H](O)[C@H]2O)[C@@H](O)[C@H](O)[C@H]1O)c1ccccc1	1.83 h	0.21 L/kg	–	1.88 mL/min/kg	1.23 h
C=CC[N@@+]12CC[C@@]34c5ccccc5N5C=C6[C@H]7C[C@H]8[C@@]9(CC[N@@+]8(CC=C)C/C7=C/CO)c7ccccc7N(C=C([C@@H](C[C@@H]31)/C(=C\CO)C2)[C@H]54)[C@@H]69	4.1 h	0.32 L/kg	–	1.3 mL/min/kg	3.6 h
NCC(=O)CCC(=O)O	1.06 h	0.12 L/kg	0.88	1.88 mL/min/kg	0.83 h
CCCCC(=O)N(Cc1ccc(-c2ccccc2-c2nnn[nH]2)cc1)C(C(=O)O)C(C)C (centres undefined)	7.5 h	0.22 L/kg	0.04	0.49 mL/min/kg	9.5 h
COC(C(=O)N1Cc2[nH]nc(NC(=O)c3ccc(N4CCN(C)CC4)cc3)c2C1)c1ccccc1 (centres undefined)	6.8 h	2.5 L/kg	–	6.1 mL/min/kg	25 h
OCCN(CCO)c1nc(N2CCCCC2)c2nc(N(CCO)CCO)nc(N3CCCCC3)c2n1	6.8 h	–	–	2 mL/min/kg	13 h
C[C@@H]1C=C2CC(=O)CCC2[C@H]2CC[C@]3(C)[C@@H](O)CC[C@H]3[C@H]12 (some centres undefined)	0.67 h	0.8 L/kg	–	20 mL/min/kg	0.65 h
CN(C)CCN1C(=O)c2cccc3cc([N+](=O)[O-])cc(c23)C1=O	5.6 h	11.3 L/kg	–	34.6 mL/min/kg	28.7 h

Compound	MRT	Vd	fraction unbound	clearance	half-life
COc1cccc2c1C(=O)c1c(O)c3c(c(O)c1C2=O)C[C@@](O)(C(=O)CO)C[C@@H]3O[C@@H]1C[C@H](N)[C@H](O[C@@H]2CCCCO2)[C@H](C)O1	12.5 h	43.2 L/kg	–	57.7 mL/min/kg	11.1 h
CC(C(=O)O)c1ccc(N2Cc3ccccc3C2=O)cc1 (centres undefined)	2.7 h	0.12 L/kg	0.01	0.65 mL/min/kg	2.11 h
OCCN1CCN(CCCN2c3ccccc3Sc3ccc(Cl)cc32)CC1	11 h	18 L/kg	0.07	27 mL/min/kg	9.4 h
COc1ccc2c3c1O[C@H]1[C@@H](O)CC[C@H]4[C@@H](C2)N(C)CC[C@@]341	4.08 h	1.07 L/kg	–	4.21 mL/min/kg	3.42 h
CN[C@@H]1[C@@H](O)[C@@H](O[C@@H]2[C@@H](O)[C@H](O[C@H]3O[C@H](CN)[C@@H](O)[C@H](O)[C@H]3O)[C@@H](N)C[C@H]2NC(=O)C(O)CN)OC[C@]1(C)O (some centres undefined)	4.1 h	–	0.95	1.3 mL/min/kg	24 h
Oc1ccc([C@H]2CNCCc3c2cc(O)c(O)c3Cl)cc1	0.2 h	0.5 L/kg	0.12	41.5 mL/min/kg	1 h
CNCCCC12CCC(c3ccccc31)c1ccccc12	54 h	45 L/kg	0.11	14 mL/min/kg	51 h
Oc1ccc2c(c1)[C@@]13CCCC[C@@]1(O)[C@@H](C2)N(CC1CCC1)CC3	5.3 h	12 L/kg	0.17	41 mL/min/kg	4.8 h
C=CC[N+]1([C@H]2C[C@H]3[C@@H]4CC[C@H]5C[C@H](O)[C@@H](N6CCOCC6)C[C@]5(C)[C@H]4CC[C@]3(C)[C@H]2OC(C)=O)CCCC1	0.95 h	0.21 L/kg	0.54	3.7 mL/min/kg	1.6 h
CC(C)(O)c1ccccc1CC[C@@H](SCC1(CC(=O)O)CC1)c1cccc(/C=C/c2ccc3ccc(Cl)cc3n2)c1	3.8 h	0.15 L/kg	–	0.68 mL/min/kg	5 h
NCCNc1ccc(NCCN)c2c1C(=O)c1ccncc1C2=O	8.9 h	10.1 L/kg	–	17.7 mL/min/kg	13.4 h
C#Cc1cccc(Nc2ncnc3cc(OCCOC)c(OCCOC)cc23)c1	7.55 h	0.77 L/kg	0.07	1.69 mL/min/kg	6.5 h
Cc1nccn1CCC(C(N)=O)(c1ccccc1)c1ccccc1	4.1 h	1.51 L/kg	0.12	6.1 mL/min/kg	3.2 h
O=[N+]([O-])OCC(CO[N+](=O)[O-])O[N+](=O)[O-]	–	–	–	194 mL/min/kg	–
C=CCN(C1=NCCN1)c1c(Cl)cccc1Cl	3.77 h	2.72 L/kg	0.4	12 mL/min/kg	3.14 h
CCN(CC)CCOC(=O)C(Cc1cccc2ccccc12)CC1CCCO1 (centres undefined)	1.5 h	0.98 L/kg	0.2	10.8 mL/min/kg	1.35 h
COc1ccccc1N1CCN(CCCNc2cc(=O)n(C)c(=O)n2C)CC1	4 h	0.75 L/kg	–	3.1 mL/min/kg	3.5 h
